Patent US20230355753A1, “BISPECIFIC ANTIBODY AGAINST CD3 AND CD20 IN COMBINATION THERAPY FOR TREATING DIFFUSE LARGE B-CELL LYMPHOMA” (GENMAB A/S, priority 2020, published 2023)
Read-outs that look alike come from different tables or passages of the source.

Key:
R/R B-NHL = assay: Ongoing clinical trial of epcoritamab monotherapy (NCT03625037); format: in vivo
Description: Epcoritamab as monotherapy is currently in a clinical trial for the treatment of relapsed/refractory (R/R) (ClinicalTrials.gov Identifier: NCT03625037).

[1] = system: R/R DLBCL eligible for ASCT; format: in vivo; conditions: in combination with R-DHAX/C, preliminary
Experimental: The trial is conducted in 2 parts: dose escalation (Part 1) and expansion (Part 2). Subjects participate in only one part. Both parts consist of a screening period, a treatment period, a safety follow-up period, and a survival follow-up period.
Epcoritamab is initially be administered in combination with R-DHAX/C in a 3-subject cohort. DLTs are evaluated during the first 28 days.
Dexamethasone (40 mg) is administered intravenously or orally on days 1-4 of a cycle once every 3 weeks (Q3W) for cycles 1-3. Cytarabine (2 g/m^2) is administered intravenously on day 1 (usually over 3 hours), repeated after 12 hours (may result in a second dose on day 2 depending on timing of first dose), once every 3 weeks (Q3W) for cycles 1-3. […] Carboplatin (for DHAC) (AUC=5 mg/ml/min; Calvert's formula) is administered intravenously on day 1 once every 3 weeks (Q3W) for cycles 1-3.
CRS is graded according to the ASTCT grading for CRS (Tables 6 and 7), and for treatment of CRS, subjects should receive supportive care. […]

[2] = system: CD20-expressing Raji-luc tumor cells; conditions: even in the presence of an excess of rituximab variant with inert Fc domain (IgG1-RTX-FEAR); cited from earlier work
[3] = system: primary DLBCL and follicular lymphoma patient biopsies; conditions: cited from earlier work

epcoritamab: IgG1 bispecific CD3xCD20 antibody, heavy/light chain pairs SEQ ID NOs: 24/25 and 26/27; CAS 2134641-34-0
tolerated dose (R/R B-NHL; human, in vivo): at least 48 mg
dose-limiting toxicities (R/R B-NHL; monotherapy, R/R B-NHL patients, preliminary data): no dose-limiting toxicities reported
responders observed ([1]; escalation phase, as of Sep. 8, 2021, total of 22 patients dosed, non-validated): 4
responders observed ([1]; expansion phase 48 mg, as of Sep. 8, 2021, response data not completely entered): 0
tumor growth in the xenograft model [2]: effectively reduce tumor growth
T-cell-mediated cytotoxicity ([3]; biopsies taken a certain amount of time after administration of an anti-CD20 antibody): induced T-cell-mediated cytotoxicity
tumor cell kill ([3]; biopsy taken 2 weeks after administering the anti-CD20 antibody): up to 40%
